This note sets out measurements from PubChem BioAssay (NCI).

Among the test systems are SN12C renal; NCI-H23 lung; A549 NSCLC; SW-620 colon; MCF7 breast; DU-145 prostate; COLO 205 colon; HCC-2998 colon; LOX IMVI melanoma; T-47D breast.
Assay in all cases: NCI tumour cell line growth inhibition, 48 h

SMILES strings stand for the structures. “And” between values parts separate entries of the source, which are not always exact repeats. Identical values can stand only once.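 Five compound concentrations were applied to cells in 96-well plates for 48 hours; endpoints were derived by simple linear interpolation of the resulting dose-response curve. GI50 is the concentration that inhibits growth by half. TGI: total growth inhibition.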 A value given as a limit tells only on which side of the number the result lay.

For `CCN(CC)CCOc1ccc(C(=O)/C=C\c2ccc(Cl)cc2Cl)cc1`, the GI50 in the experiment on SN12C renal is 6.52 µM; with NCI-H23 lung, 7.15 µM; with A549 NSCLC, 6.55 µM; in the experiment with SW-620 colon it was 1.87 µM; in the experiment on MCF7 breast it was 1.29 µM; with DU-145 prostate, 10.3 µM. For the same compound, the GI50 was 1.95 µM in the experiment with COLO 205 colon, 2.18 µM in the experiment on HCC-2998 colon, 1.78 µM in the experiment with LOX IMVI melanoma and 11.9 µM in the experiment on T-47D breast. Moreover, the TGI with SN12C renal worked out at 21.9 µM; with NCI-H23 lung, 22.1 µM; in the experiment on A549 NSCLC, 22.6 µM; in the experiment with SW-620 colon, 4.36 µM; in the experiment on MCF7 breast, 3.12 µM; in the experiment on DU-145 prostate, 22 µM. Also, the TGI with COLO 205 colon stood at 5.15 µM; in the experiment on HCC-2998 colon, 4.65 µM; in the experiment with LOX IMVI melanoma, 3.6 µM; in the experiment on T-47D breast it was 33.6 µM.
As to `Cc1ccc(-c2nc(N3CCCNCC3)c3oc(-c4ccc(C)cc4)nc3n2)cc1`, the GI50 is 1.61 µM in the experiment on SN12C renal; 19.9 µM in the experiment on NCI-H23 lung; 1.72 µM in the experiment with A549 NSCLC; 1.66 µM in the experiment with SW-620 colon; 1.85 µM in the experiment on MCF7 breast; 1.89 µM in the experiment on DU-145 prostate. Further, the GI50 in the experiment with COLO 205 colon is 1.89 µM; in the experiment with HCC-2998 colon it was 32.3 µM; in the experiment with LOX IMVI melanoma, 1.86 µM; with T-47D breast it was 1.94 µM. The TGI was determined as 3.06 µM with SN12C renal; 88.2 µM in the experiment with NCI-H23 lung; 3.13 µM in the experiment with A549 NSCLC; 3.2 µM in the experiment with SW-620 colon; 3.88 µM with MCF7 breast; 3.3 µM with DU-145 prostate. Further, the TGI was 3.55 µM in the experiment with COLO 205 colon, above 100 µM in the experiment with HCC-2998 colon, 3.46 µM in the experiment with LOX IMVI melanoma and 4.17 µM with T-47D breast.
On to `CN1C(Cl)=NS(=O)(=O)c2ccccc21`, for which the TGI in the experiment with SN12C renal, with NCI-H23 lung, in the experiment with A549 NSCLC, with SW-620 colon, with MCF7 breast and in the experiment on DU-145 prostate was above 100 µM each time. Further, the TGI in the experiment on COLO 205 colon, with HCC-2998 colon, with LOX IMVI melanoma and in the experiment with T-47D breast was above 100 µM in each case.
As for `[Cl][Cd][Cl]`, the GI50 in the experiment with SN12C renal was > 69 µM and 53 µM; in the experiment with NCI-H23 lung it was 3.08 µM and 25.4 µM and 2.68 µM; in the experiment with A549 NSCLC, > 47.8 µM and 33.2 µM; with SW-620 colon, 19.5 µM and 17.2 µM; in the experiment with MCF7 breast, 9.11 µM; in the experiment on DU-145 prostate, 24 µM. For the same compound, the GI50 with COLO 205 colon was > 46.7 µM and 12.9 µM; in the experiment with HCC-2998 colon, 23.6 µM and 79 µM; with LOX IMVI melanoma, 24.8 µM; with T-47D breast, 9.63 µM. The TGI in the experiment on SN12C renal is 158 µM; with NCI-H23 lung it was 58.1 µM and 10.8 µM; in the experiment on A549 NSCLC it was > 66.5 µM and 106 µM; in the experiment with SW-620 colon, 37.1 µM and 76.7 µM; in the experiment on MCF7 breast, 19.2 µM; in the experiment with DU-145 prostate it was 63.6 µM. Also, the TGI is > 69.2 µM and 36.3 µM in the experiment on COLO 205 colon; > 63.5 µM and 158 µM with HCC-2998 colon; 75.9 µM in the experiment with LOX IMVI melanoma; 19.5 µM in the experiment with T-47D breast.
With `CN(C)CCN1C(=O)c2cccc3cccc(c23)C1=O`, the GI50 with SN12C renal is 12.7 µM; with NCI-H23 lung it was above 25 µM; in the experiment with A549 NSCLC, 12.9 µM; in the experiment with SW-620 colon, 11.7 µM; in the experiment on MCF7 breast, 9.31 µM; in the experiment with DU-145 prostate, 12.4 µM. Besides, the GI50 in the experiment with COLO 205 colon was 7.04 µM; with HCC-2998 colon, above 25 µM; with LOX IMVI melanoma it was 10.6 µM; in the experiment with T-47D breast, above 25 µM. Besides, the TGI in the experiment with SN12C renal, with NCI-H23 lung, in the experiment with A549 NSCLC, in the experiment on SW-620 colon, with MCF7 breast and in the experiment with DU-145 prostate was above 25 µM throughout. Moreover, the TGI in the experiment on COLO 205 colon, in the experiment on HCC-2998 colon, in the experiment on LOX IMVI melanoma and with T-47D breast was above 25 µM in each case.
For `Cc1cccc2c(N)c3ccccc3nc12`, the GI50 is 1.16 µM with SN12C renal; 1.81 µM with NCI-H23 lung; 1.02 µM with A549 NSCLC; 0.699 µM in the experiment on SW-620 colon; 1.32 µM with MCF7 breast; 1.53 µM with DU-145 prostate. In addition, the GI50 in the experiment with COLO 205 colon is 0.463 µM; in the experiment with HCC-2998 colon, 1.24 µM; with LOX IMVI melanoma, 0.616 µM; in the experiment on T-47D breast, 2.19 µM. In addition, the TGI stood at 12.7 µM in the experiment on SN12C renal; 7.49 µM in the experiment on NCI-H23 lung; 4.02 µM with A549 NSCLC; 11.9 µM in the experiment on SW-620 colon; 11.6 µM with MCF7 breast; 12.3 µM with DU-145 prostate. Also, the TGI with COLO 205 colon came out at 2.31 µM; with HCC-2998 colon it was 4.35 µM; in the experiment on LOX IMVI melanoma it was 3.66 µM; with T-47D breast, 6.85 µM.
